Assay results: PubChem BioAssay (NCI)
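Compound exposure: 48 hours, 5 concentrations, 96-well plates. At the TGI there is no net growth.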 Where a SMILES comes first, the peptide text is derived from it. [ ]: non-standard residue; d: D form. The star is where a group is joined. NMeAc5c = CNC1(C(=O)O)CCCC1; Boc = CC(C)(C)OC(=O)*; OBn = c1ccc(CO*)cc1

Tested on: MDA-MB-231 breast
Assay: inhibition of tumour cell growth, NCI panel, 48 h

Row | SMILES | TGI
1 | N#CC1(C#N)N[C@@H](c2ccsc2)[C@H]2C(=O)N(c3ccccc3)C(=O)[C@H]21 | > 100 µM
2 | O=[N+]([O-])c1ccc2c(c1)/C(=N/N=C1c3ccccc3Cc3ccccc31)c1cc([N+](=O)[O-])cc([N+](=O)[O-])c1-2 | 6.42 µM
3 | CN(C(=O)C(Cc1ccccc1)NC(=O)OC(C)(C)C)C1(C(=O)NC(Cc2ccccc2)C(=O)OCc2ccccc2)CCCC1 (stereo not drawn) (Boc-Phe-[NMeAc5c]-Phe-OBn; configuration not given here) | 87 µM
4 | Cc1ccc([N+](=O)[O-])cc1NC1=NCCO1 | > 100 µM
5 | O=c1ccc(-c2ccccc2)n[nH]1 | > 100 µM
6 | CCOC(=O)C(SCCO)C(C(=O)OCC)n1cnc2c(=O)[nH]c(NC(C)=O)nc21 (stereo not drawn) | > 100 µM
7 | C#CCNC(CS)C(=O)O (stereo not drawn) | > 100 µM
8 | Cc1ccc(N=NC(=Nc2ccccc2)c2ccc(N(CCC#N)CCC#N)cc2)cc1 | 55.8 µM
9 | Cc1ccccc1C(=O)N1CCc2c([nH]c3ccccc23)C1 | 34.1 µM
10 | NC(=O)NCCCC(NC(=O)OCCCCn1ccc(=O)[nH]c1=O)C(=O)O (stereo not drawn) | > 100 µM
11 | COc1ccc2c(c1)/C(=C/CCN(C)C)c1ccccc1S2 | > 100 µM
12 | NS(=O)(=O)c1ccc2c(c1)OCCOCCOCCOCCO2 | > 100 µM
13 | CCOC(=O)/C=C/CC(C)(C)CCOC(C)=O | > 10 µM
14 | COC(=O)C([C@H](NC1(c2ccccc2)c2ccccc2-c2ccccc21)C(=O)OC)N(NC(=O)OCc1ccccc1)C(=O)OCc1ccccc1 (mixture of isomers) | > 100 µM

Tested on: MDA-MB-435
Assay: inhibition of tumour cell growth, NCI panel, 48 h

Row | SMILES | TGI
15 | COc1cc(C(=O)N(C(=S)OCc2ccccn2)c2ccccc2)cc(OC)c1OC | > 100 µM
16 | CCCCCCCCCCCCCCNC(=O)CCC(NC(=O)c1ccc(N(C)Cc2cnc3nc(N)nc(N)c3n2)cc1)C(=O)NCCCCCCCCCCCCCC (stereo not drawn) | 25.6 µM
17 | COc1ccc(N/N=C2\CCOc3ccc(C)cc3C2=O)cc1 | 15.4 µM
18 | NC(N)=N/N=C/c1c(-c2ccc(N)cc2)nc2sccn12 | 94 µM
19 | CCCCCCc1cc2cc(-c3csc(CC#N)n3)c(=O)oc2cc1O | > 100 µM
20 | COc1cc(Br)cc2cc(-c3cn4ccsc4n3)c(=O)oc12 | 51.2 µM
21 | Nn1c(-c2ccccc2)nn(C(=O)c2ccccc2)c1=O | > 100 µM
22 | O=c1[nH]c(Nc2cccc(CC(F)(F)F)c2)nc2nc[nH]c12 | > 100 µM
23 | Nc1nc(SCCc2ccccc2)c2[nH]cnc2n1 | > 100 µM
24 | COc1ccc(C2CC(c3c(O)ccc4ccccc34)=NN2C(C)=O)cc1OC (stereo not drawn) | 69.2 µM
25 | COc1cc2c(c(OC)c1OC)C(=O)[C@@H]1[C@H]2N1C(N)=O | > 100 µM
26 | COc1ccc2cc(NC(=O)N/N=C\c3ccc([N+](=O)[O-])cc3)ccc2c1 | > 100 µM
27 | C[C@@H]1CC[C@]2(C(=O)O)CC[C@]3(C)C(=CC[C@@H]4[C@@]5(C)CC[C@H](O)C(C)(C)[C@@H]5CC[C@]43C)[C@@H]2[C@]1(C)O | 28.8 µM
28 | CN1CCc2cc(N)cc3c2C1Cc1ccc(O)c(O)c1-3 (stereo not drawn) | > 100 µM
29 | O=C1CCCSC(=O)N1Cc1ccccc1 | > 100 µM
30 | COC(=O)c1c(C)cccc1C1CN=NC12Cc1ccc(C)cc1C2=O (stereo not drawn) | > 100 µM
31 | CCCN(C(=O)c1ccccc1)C(C#N)c1ccc(C(C#N)N(CCC)C(=O)c2ccccc2)cc1 (stereo not drawn) | > 100 µM
32 | COC(=O)c1ccccc1CC1Cc2ccc3c(c2C1=O)CCCC3 (stereo not drawn) | > 100 µM
33 | c1ccc(N=c2sc3ccccc3nc2Nc2ccccc2)cc1 | > 100 µM

Row | SMILES | TGI
34 | CCOC(=O)c1csc(NC(=O)CN2CCOCC2)n1 | > 100 µM
35 | O=C1/C(=C/c2ccccc2)N=C2Sc3c(nc[nH]c3=O)N12 | > 100 µM
36 | C=CC1(C)CCC2C(=CCC3C2(C)CC(O)C(O)C3(C)COC2OC(C(=O)O)C(O)C(O)C2O)C1 (stereo not drawn) (tested in a mixture with another compound) | > 100 µM
37 | N#Cc1c(N2CCCC2)ncn(-c2ccccc2)c1=O | > 100 µM
38 | N#CC1(C#N)N[C@@H](c2ccsc2)[C@H]2C(=O)N(c3ccccc3)C(=O)[C@H]21 | > 100 µM
39 | O=[N+]([O-])c1ccc2c(c1)/C(=N/N=C1c3ccccc3Cc3ccccc31)c1cc([N+](=O)[O-])cc([N+](=O)[O-])c1-2 | 3.38 µM
40 | CN(C(=O)C(Cc1ccccc1)NC(=O)OC(C)(C)C)C1(C(=O)NC(Cc2ccccc2)C(=O)OCc2ccccc2)CCCC1 (stereo not drawn) (Boc-Phe-[NMeAc5c]-Phe-OBn; configuration not given here) | > 100 µM
41 | Cc1ccc([N+](=O)[O-])cc1NC1=NCCO1 | > 100 µM
42 | O=c1ccc(-c2ccccc2)n[nH]1 | > 100 µM
43 | CCOC(=O)C(SCCO)C(C(=O)OCC)n1cnc2c(=O)[nH]c(NC(C)=O)nc21 (stereo not drawn) | > 100 µM
44 | C#CCNC(CS)C(=O)O (stereo not drawn) | > 100 µM
45 | Cc1ccc(N=NC(=Nc2ccccc2)c2ccc(N(CCC#N)CCC#N)cc2)cc1 | > 100 µM
46 | Cc1ccccc1C(=O)N1CCc2c([nH]c3ccccc23)C1 | 37.3 µM
47 | NC(=O)NCCCC(NC(=O)OCCCCn1ccc(=O)[nH]c1=O)C(=O)O (stereo not drawn) | > 100 µM
48 | COc1ccc2c(c1)/C(=C/CCN(C)C)c1ccccc1S2 | > 100 µM
49 | NS(=O)(=O)c1ccc2c(c1)OCCOCCOCCOCCO2 | > 100 µM
50 | CCOC(=O)/C=C/CC(C)(C)CCOC(C)=O | > 10 µM
51 | COC(=O)C([C@H](NC1(c2ccccc2)c2ccccc2-c2ccccc21)C(=O)OC)N(NC(=O)OCc1ccccc1)C(=O)OCc1ccccc1 (mixture of isomers) | > 100 µM

Tested on: HOP-62 NSCLC
Assay: inhibition of tumour cell growth, NCI panel, 48 h

Row | SMILES | TGI
52 | CCCCCCCCCCCCCCNC(=O)CCC(NC(=O)c1ccc(N(C)Cc2cnc3nc(N)nc(N)c3n2)cc1)C(=O)NCCCCCCCCCCCCCC (stereo not drawn) | 21.2 µM
53 | COc1ccc(N/N=C2\CCOc3ccc(C)cc3C2=O)cc1 | > 100 µM
